pIC50: −log10 of the molar value. Active and inactive are the calls of the source. The rule behind the calls is not given here.
What was measured:
[1] = Metabolic stability in Sprague-Dawley rat plasma assessed as compound remaining measured upto 3 hrs by LC-MS/MS analysis; assay type: ADME, cell-free
[2] = Metabolic stability in Sprague-Dawley rat liver microsomes assessed as intrinsic clearance at 5 ug/ml incubated for 1 hr in presence of NADPH by LC-MS/MS analysis; assay type: ADME, Microsome; conditions: dose 5 µg/ml
PaTu 8988t = experiment: Antiproliferative activity against human PaTu 8988t cells assessed as reduction in cell viability at 10 uM incubated for 24 to 48 hrs by CCK-8 assay; assay type: functional, cell-based; conditions: time lower […], time upper 48.0 hrs
[3] = Metabolic stability in Sprague-Dawley rat liver microsomes assessed as half life at 5 ug/ml incubated for 1 hr in presence of NADPH by LC-MS/MS analysis; assay type: ADME, Microsome; conditions: dose 5 µg/ml
TE-1 = experiment: Antiproliferative activity against human TE-1 cells assessed as reduction in cell viability at 10 uM incubated for 24 to 48 hrs by CCK-8 assay; assay type: functional, cell-based; conditions: time lower […], time upper 48.0 hrs
HCT-116 [4] = experiment: Antiproliferative activity against human HCT-116 cells assessed as reduction in cell viability incubated for 48 hrs by CCK-8 assay; assay type: functional, cell-based; conditions: dose 20-80 µM
L02 = experiment: Cytotoxicity activity against human L02 cells assessed as reduction in cell viability at 10 uM incubated for 24 to 48 hrs by CCK-8 assay; assay type: toxicity, cell-based; conditions: l02, 10 µM, time 24-48 hrs
[5] = AUC (0 to t) in Sprague-Dawley rat at 5 mg/kg, iv measured upto 24 hrs by LC-MS analysis; assay type: ADME, organism-based; conditions: in vivo
A-375 = experiment: Antiproliferative activity against human A-375 cells assessed as reduction in cell viability at 10 uM incubated for 24 to 48 hrs by CCK-8 assay; assay type: functional, cell-based; conditions: time lower […], time upper 48.0 hrs
HCT-116 [6] = experiment: Induction of cell cycle arrest in human HCT-116 cells assessed as decrease in accumulation of cells at G2/M phase at 3 to 12 uM incubated for 48 hrs by PI staining based flow cytometry analysis (reference value: 16.5 %); assay type: functional; parameters: scale not given: the % may be the effect or the level left; conditions: dose 3-12 µM
HCT-116 [7] = experiment: Antiproliferative activity against human HCT-116 cells assessed as inhibition of mTOR phosphorylation incubated for 48 hrs by Western blotting analysis; assay type: functional, cell-based; conditions: dose 3-12 µM
[8] = biological target: Serine/threonine-protein kinase 17A (Homo sapiens) (UniProt Q9UEE5); experiment: Inhibition of human DRAK1 at 1 uM
A673 = experiment: Antiproliferative activity against human A673 cells assessed as reduction in cell viability at 10 uM incubated for 24 to 48 hrs by CCK-8 assay; assay type: functional, cell-based; conditions: time lower […], time upper 48.0 hrs
[9] = test system: Receptor-type tyrosine-protein kinase FLT3 (Homo sapiens), P36888 [D835Y]; experiment: Inhibition of human FLT3 D835Y mutant at 1 uM
MCF7 [10] = experiment: Antiproliferative activity against human MCF7 cells assessed as reduction in cell viability incubated for 24 to 48 hrs by CCK-8 assay; assay type: functional, cell-based
[11] = biological target: T1, Phosphatidylinositol 4,5-bisphosphate 3-kinase catalytic subunit delta isoform (Homo sapiens, UniProt O00329); experiment: Inhibition of PI3Kdelta (unknown origin) by ADP-Glo luminescent kinase assay
T1 sequence (O00329 whole entry): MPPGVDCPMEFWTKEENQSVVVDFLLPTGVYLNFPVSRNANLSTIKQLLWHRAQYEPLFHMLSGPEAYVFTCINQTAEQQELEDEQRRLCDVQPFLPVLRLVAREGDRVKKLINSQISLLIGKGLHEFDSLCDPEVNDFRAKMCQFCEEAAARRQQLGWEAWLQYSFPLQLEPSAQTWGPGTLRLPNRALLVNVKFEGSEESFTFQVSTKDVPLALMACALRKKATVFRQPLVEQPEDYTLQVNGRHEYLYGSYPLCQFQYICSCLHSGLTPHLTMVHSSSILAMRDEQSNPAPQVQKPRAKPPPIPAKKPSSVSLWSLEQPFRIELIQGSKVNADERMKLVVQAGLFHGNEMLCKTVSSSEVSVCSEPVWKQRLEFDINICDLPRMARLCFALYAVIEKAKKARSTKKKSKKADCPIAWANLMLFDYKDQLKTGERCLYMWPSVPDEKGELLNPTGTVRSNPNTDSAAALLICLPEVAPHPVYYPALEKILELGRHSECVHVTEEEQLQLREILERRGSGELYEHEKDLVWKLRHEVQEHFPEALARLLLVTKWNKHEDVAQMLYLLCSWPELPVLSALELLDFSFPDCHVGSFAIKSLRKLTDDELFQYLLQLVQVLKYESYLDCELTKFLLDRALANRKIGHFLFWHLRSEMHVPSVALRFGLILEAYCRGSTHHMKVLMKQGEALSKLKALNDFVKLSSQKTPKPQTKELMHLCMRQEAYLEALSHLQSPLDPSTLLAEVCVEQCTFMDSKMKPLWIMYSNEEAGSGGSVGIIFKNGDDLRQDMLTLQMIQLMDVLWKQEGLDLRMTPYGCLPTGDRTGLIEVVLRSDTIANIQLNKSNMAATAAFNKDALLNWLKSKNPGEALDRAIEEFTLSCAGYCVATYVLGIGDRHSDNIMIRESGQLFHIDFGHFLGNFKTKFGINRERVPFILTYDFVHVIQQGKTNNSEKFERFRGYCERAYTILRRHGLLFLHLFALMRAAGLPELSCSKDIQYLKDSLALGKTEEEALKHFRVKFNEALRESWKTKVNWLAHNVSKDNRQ

HCT-116 [12] = experiment: Inhibition of cell invasion human HCT-116 cells incubated for 48 hrs by crystal violet staining based transwell assay; assay type: functional; conditions: dose 3-12 µM
[13] = Clearance in Sprague-Dawley rat at 5 mg/kg, iv measured upto 24 hrs by LC-MS analysis; assay type: ADME, organism-based; conditions: in vivo
DU-145 = experiment: Antiproliferative activity against human DU-145 cells assessed as reduction in cell viability at 10 uM incubated for 24 to 48 hrs by CCK-8 assay; assay type: functional, cell-based; conditions: time lower […], time upper 48.0 hrs
[14] = AUC (0 to infinity) in Sprague-Dawley rat at 5 mg/kg, iv measured upto 24 hrs by LC-MS analysis; assay type: ADME, organism-based; conditions: in vivo
HCT-116 [15] = experiment: Antiproliferative activity against human HCT-116 cells assessed as inhibition of colony formation at 3 to 12 uM incubated for 48 hrs by crystal violet staining based assay; assay type: functional, cell-based; conditions: dose 3-12 µM
Cytochrome P450 2C19 = Cytochrome P450 2C19 (Homo sapiens, UniProt P33261); experiment: Inhibition of CYP2C19 in human liver microsomes using omeprazole as substrate pre-incubated for 30 mins followed by substrate addition and measured after 15 mins in presence of NADPH by LC/MS analysis; assay type: ADME, Microsome
MCF7 [16] = experiment: Antiproliferative activity against human MCF7 cells expressing PIK3CA with E545K mutation assessed as reduction in cell viability incubated for 24 to 48 hrs by CCK-8 assay; assay type: functional, cell-based
[17] = MRT (0 to infinity) in Sprague-Dawley rat at 5 mg/kg, iv measured upto 24 hrs by LC-MS analysis; assay type: ADME, organism-based; conditions: in vivo
HCT-116 [18] = experiment: Antiproliferative activity against human HCT-116 cells assessed as inhibition of Akt phosphorylation incubated for 48 hrs by Western blotting analysis; assay type: functional, cell-based; conditions: dose 3-12 µM
[19] = Half life in Sprague-Dawley rat at 5 mg/kg, iv measured upto 24 hrs by LC-MS analysis; assay type: ADME, organism-based; conditions: in vivo
HEK-293T = experiment: Cytotoxicity against human HEK293T cells assessed as reduction in cell viability at 10 uM incubated for 24 to 48 hrs by CCK-8 assay; assay type: toxicity, cell-based; conditions: time 24-48 hrs

Sequence of Serine/threonine-protein kinase 17A (Homo sapiens) (Q9UEE5 whole entry): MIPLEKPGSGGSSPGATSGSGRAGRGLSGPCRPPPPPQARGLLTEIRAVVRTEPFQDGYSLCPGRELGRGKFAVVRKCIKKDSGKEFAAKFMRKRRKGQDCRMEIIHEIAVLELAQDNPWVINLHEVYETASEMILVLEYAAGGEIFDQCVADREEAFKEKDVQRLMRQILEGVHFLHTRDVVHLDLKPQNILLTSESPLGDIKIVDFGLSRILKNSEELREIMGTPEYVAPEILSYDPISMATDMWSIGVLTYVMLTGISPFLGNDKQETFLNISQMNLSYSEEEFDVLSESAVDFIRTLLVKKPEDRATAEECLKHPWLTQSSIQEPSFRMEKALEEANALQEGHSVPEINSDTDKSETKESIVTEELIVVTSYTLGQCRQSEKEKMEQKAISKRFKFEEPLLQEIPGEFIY
Sequence of Cytochrome P450 2C19 (P33261 whole entry): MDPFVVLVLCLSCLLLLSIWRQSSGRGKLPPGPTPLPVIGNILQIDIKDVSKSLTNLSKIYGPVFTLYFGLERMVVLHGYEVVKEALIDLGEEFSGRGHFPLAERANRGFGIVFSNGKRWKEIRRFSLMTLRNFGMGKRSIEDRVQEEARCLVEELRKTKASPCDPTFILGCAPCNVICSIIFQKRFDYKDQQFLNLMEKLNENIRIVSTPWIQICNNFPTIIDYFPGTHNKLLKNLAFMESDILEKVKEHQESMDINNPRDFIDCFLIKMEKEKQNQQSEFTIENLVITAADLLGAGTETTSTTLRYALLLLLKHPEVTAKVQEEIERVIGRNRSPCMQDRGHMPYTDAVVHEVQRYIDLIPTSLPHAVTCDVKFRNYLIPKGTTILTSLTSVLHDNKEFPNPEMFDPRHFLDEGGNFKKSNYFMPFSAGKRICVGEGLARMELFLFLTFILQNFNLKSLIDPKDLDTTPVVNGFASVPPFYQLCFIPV

## Nc1nc2cc(-c3ccc4ncc(N5C[C@@H]6OCCO[C@@H]6C5)nc4c3)ccc2o1
[1]
  Stability: Stable
[2]
  CLH: 6 µL/min/mg
PaTu 8988t
  Activity: Active
[3]
  half-life at 5 ug/ml: 3.61 h
TE-1
  Activity: Active
HCT-116 [4]
  Activity: Dose-Dependent Effect
L02
  Activity: Toxic
[5]
  AUC(0-t) at 24 h: 8230 ng·h/mL
A-375
  Activity: Active
HCT-116 [6]
  Activity: 19%
HCT-116 [7]
  Activity: Dose-Dependent Effect
[8]
  inhibition: Active
A673
  Activity: Active
[9]
  inhibition: Active
MCF7 [10]
  pIC50: 6.12
[11]
  pIC50: 6.95
HCT-116 [12]
  inhibition: Dose-Dependent Effect
[13]
  clearance: 10 mL/min/kg
DU-145
  Activity: Active
[14]
  AUC(0-inf): 8250 ng·h/mL
HCT-116 [15]
  Activity: Active
Cytochrome P450 2C19
  pIC50: < 5.00
MCF7 [16]
  pIC50: 5.48
[17]
  MRT inf: 1.8 h
HCT-116 [18]
  Activity: Dose-Dependent Effect
[19]
  half-life: 5.8 h
HEK-293T
  Activity: Toxic

From ChEMBL document CHEMBL5634096, “Design, synthesis and bioevaluation of PI3Kα-selective inhibitors as potential colorectal cancer drugs” (Eur J Med Chem, 2023)
